From patent US7674819B2 (Warner-Lambert Company LLC, priority 2005, dated 2010)
Numbering of substitutions follows the chain as printed. Where two headings read alike, the source gives them in different places.

What was measured:
hAR = biological target: T1, hAR (Homo sapiens, UniProt P10275); assay: Competitive binding of 3H-DHT to baculovirus/Sf9 generated hAR extracts; conditions: one hour at 4° C., mean of multiple tests
T1 sequence (P10275 1-920): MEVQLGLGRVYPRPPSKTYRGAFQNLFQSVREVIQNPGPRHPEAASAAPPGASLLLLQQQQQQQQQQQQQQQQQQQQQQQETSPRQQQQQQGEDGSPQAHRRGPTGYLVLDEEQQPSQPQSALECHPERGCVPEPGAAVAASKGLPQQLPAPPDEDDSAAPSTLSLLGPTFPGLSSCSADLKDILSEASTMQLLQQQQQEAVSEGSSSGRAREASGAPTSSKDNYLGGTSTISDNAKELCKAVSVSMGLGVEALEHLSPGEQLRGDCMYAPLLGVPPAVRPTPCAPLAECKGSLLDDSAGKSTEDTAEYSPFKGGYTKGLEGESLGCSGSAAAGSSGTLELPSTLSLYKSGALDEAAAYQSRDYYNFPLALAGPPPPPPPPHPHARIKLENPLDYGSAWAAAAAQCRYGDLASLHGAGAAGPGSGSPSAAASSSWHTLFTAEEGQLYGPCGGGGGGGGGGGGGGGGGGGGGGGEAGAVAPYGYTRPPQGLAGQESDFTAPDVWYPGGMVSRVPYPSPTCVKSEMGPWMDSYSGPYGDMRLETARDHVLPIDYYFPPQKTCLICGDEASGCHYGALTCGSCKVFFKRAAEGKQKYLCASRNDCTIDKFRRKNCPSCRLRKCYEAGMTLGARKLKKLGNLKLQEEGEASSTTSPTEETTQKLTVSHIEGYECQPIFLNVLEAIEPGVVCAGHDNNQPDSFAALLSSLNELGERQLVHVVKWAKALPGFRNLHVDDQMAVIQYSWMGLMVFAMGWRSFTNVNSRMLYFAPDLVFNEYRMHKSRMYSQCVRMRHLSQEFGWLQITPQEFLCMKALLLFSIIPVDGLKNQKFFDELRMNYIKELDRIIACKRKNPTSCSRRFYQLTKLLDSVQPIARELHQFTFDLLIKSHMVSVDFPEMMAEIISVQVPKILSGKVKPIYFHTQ
Outline: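 Baculovirus/Sf9-expressed hAR extract incubated with test compound, hydroxylapatite and 1 nM 3H-DHT tracer for 1 h at 4° C, then washed free of unbound tracer. Affinity given as concentration inhibiting half of maximal 3H-DHT binding.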

androgen receptor = biological target: T2, androgen receptor (Homo sapiens, UniProt P10275); assay: AR Antagonist Cell Assay (MDA-MB453-MMTV clone 54-19, luciferase reporter); format: cell-based; conditions: inhibition of induction by DHT (final concentration at 100 μM), 17 hr, compound 0.32-1000 nM, mean of multiple tests
T2 sequence (P10275 1-920 Q868H): T1 sequence (P10275 1-920) with Q868H
Procedure: The compounds ability to antagonize the effects of androgen on the androgen receptor were determined in a whole cell assay as described immediately below.
Experimental Procedure for AR Antagonist Cell Assay
This cell line is a stable transfected cell line with MDA-MB453 cell background (a human breast tumor cell line expressing androgen receptor). A MMTV minimal promoter containing ARE was first cloned in front of a firefly luciferase reporter gene. Then the cascade was cloned into transfection vector pUV120puro. […] Puromycin resistant stable cell line was selected.
Cell Culture Media and Reagents:
Plating medium: DMEM (phenol red free), 10% charcoal treated HyClone serum, 1% L-glutamine
Assay medium: DMEM (phenol red free), 1% charcoal treated HyClone serum, 1% L-glutamine, 1% penicillin/streptomycin
Cells are maintained in culture medium, splitting cells when they reach 80-90% confluence
To test compounds, 10,000 cells/well are plated to opaque 96 cell culture plate in 100 ul/well plating medium, culture for overnight at 37° C. in cell culture incubator
Add 10 ul/well freshly prepared DHT (final concentration at […]) to each well, incubate at 37° C. for 17 hr (overnight)
Add 50 ul/well 3× luciferase buffer, incubate at room temperature for 5 minutes, then count on Luminometer
The results are reported as the mean of multiple tests described below (the numbers of tests are indicated in the footnote). N.D. denotes that the compound was not tested.

[1] = IC50, concentration at which one half of maximum binding of 1 nM 3H-DHT to hAR is inhibited
[2] = concentration at which one half of maximum binding of 1 nM 3H-DHT to hAR is inhibited, read-out: IC50

Row | Compound | IC50 (hAR; [1]) [nM] | IC50 (androgen receptor) [nM] | IC50 (androgen receptor; read-out: IC50) [nM] | IC50 (hAR; [2]) [nM]
1 | CC1(C)CN(Cc2ccccc2O)C(=O)C1Oc1ccc(C#N)c(C(F)(F)F)c1 (stereo not shown) [Example 11, 4-[1-(2-Hydroxy-benzyl)-4,4-dimethyl-2-oxo-pyrrolidin-3-yloxy]-2-trifluoromethyl-benzonitrile] | 17 | 14 |  | 
2 | COc1cccc(CN2CC(C)(C)C(Oc3ccc(C#N)c(C(F)(F)F)c3)C2=O)c1 (stereo not shown) [Example 12, 4-[1-(3-Methoxy-benzyl)-4,4-dimethyl-2-oxo-pyrrolidin-3-yloxy]-2-trifluoromethyl-benzonitrile] | 111 | 310 |  | 
3 | CC1(C)CN(Cc2cccc(O)c2)C(=O)C1Oc1ccc(C#N)c(C(F)(F)F)c1 (stereo not shown) [Example 13, 4-[1-(3-Hydroxy-benzyl)-4,4-dimethyl-2-oxo-pyrrolidin-3-yloxy]-2-trifluoromethyl-benzonitrile] | 11 | 313 |  | 
4 | CC1(C)CN(Cc2ccccc2F)C(=O)C1Oc1ccc(C#N)c(C(F)(F)F)c1 (stereo not shown) [Example 15, 4-[1-(2-Fluoro-benzyl)-4,4-dimethyl-2-oxo-pyrrolidin-3-yloxy]-2-trifluoromethyl-benzonitrile] | 48 | 71 |  | 
5 | CC1(C)CN(Cc2ccccc2F)C(=O)C1Oc1ccc(C#N)c(C(F)(F)F)c1 (stereo not shown) [Example 16, 4-[1-(2-Fluoro-benzyl)-4,4-dimethyl-2-oxo-pyrrolidin-3-yloxy]-2-trifluoromethyl-benzonitrile] | 26 | 43 |  | 
6 | CC1(C)CN(Cc2ccc(F)cc2)C(=O)C1Oc1ccc(C#N)c(C(F)(F)F)c1 (stereo not shown) [Example 17, 4-[1-(4-Fluoro-benzyl)-4,4-dimethyl-2-oxo-pyrrolidin-3-yloxy]-2-trifluoromethyl-benzonitrile] | 144 | 214 |  | 
7 | CC1(C)CN(Cc2cc(O)cc(O)c2)C(=O)C1Oc1ccc(C#N)c(C(F)(F)F)c1 (stereo not shown) [Example 18, 4-[1-(3,5-Dihydroxy-benzyl)-4,4-dimethyl-2-oxo-pyrrolidin-3-yloxy]-2-trifluoromethyl-benzonitrile] | 45 | 8 |  | 
8 | CCCCN1CC(C)(C)C(Oc2ccc(C#N)c(C(F)(F)F)c2)C1=O (stereo not shown) [Example 19, 4-(1-Butyl-4,4-dimethyl-2-oxo-pyrrolidin-3-yloxy)-2-trifluoromethyl-benzonitrile] | 152 | 19 |  | 
9 | CC(C)OC(=O)c1ccc(CN2CC(C)(C)C(Oc3ccc(C#N)c(C(F)(F)F)c3)C2=O)o1 (stereo not shown) [Example 27, 5-[3-(4-Cyano-3-trifluoromethyl-phenoxy)-4,4-dimethyl-2-oxo-pyrrolidin-1-ylmethyl]-furan-2-carboxylic acid isopropyl ester] | 44 |  | 368 | 
10 | COC(=O)c1ccc(CN2CC(C)(C)C(Oc3ccc(C#N)c(C(F)(F)F)c3)C2=O)o1 (stereo not shown) [Example 28, 5-[3-(4-Cyano-3-trifluoromethyl-phenoxy)-4,4-dimethyl-2-oxo-pyrrolidin-1-ylmethyl]-furan-2-carboxylic acid methyl ester] |  |  | 317 | 310
11 | CCOC(=O)c1ccc(CN2CC(C)(C)C(Oc3ccc(C#N)c(C(F)(F)F)c3)C2=O)o1 (stereo not shown) [Example 29, 5-[3-(4-Cyano-3-trifluoromethyl-phenoxy)-4,4-dimethyl-2-oxo-pyrrolidin-1-ylmethyl]-furan-2-carboxylic acid ethyl ester] | 119 | 124 |  | 
12 | COC(=O)c1csc(CN2CC(C)(C)C(Oc3ccc(C#N)c(C(F)(F)F)c3)C2=O)n1 (stereo not shown) [Example 30, 2-[3-(4-Cyano-3-trifluoromethyl-phenoxy)-4,4-dimethyl-2-oxo-pyrrolidin-1-ylmethyl]-thiazole-4-carboxylic acid methyl ester] | 215 | 813 |  | 
13 | CC1(C)CN(Cc2ccncc2)C(=O)C1Oc1ccc(C#N)c(C(F)(F)F)c1 (stereo not shown) [Example 35, 4-(4,4-Dimethyl-2-oxo-1-pyridin-4-ylmethyl-pyrrolidin-3-yloxy)-2-trifluoromethyl-benzonitrile] | 128 | 486 |  | 
14 | COC(=O)c1ccc(CN2CC(C)(C)C(Oc3ccc(C#N)c(C(F)(F)F)c3)C2=O)cc1 (stereo not shown) [Example 37, 4-[3-(4-Cyano-3-trifluoromethyl-phenoxy)-4,4-dimethyl-2-oxo-pyrrolidin-1-ylmethyl]-benzoic acid methyl ester] | 47 | 84 |  | 
15 | CC1(C)CN(Cc2ccc3nsnc3c2)C(=O)C1Oc1ccc(C#N)c(C(F)(F)F)c1 (stereo not shown) [Example 39, 4-(1-Benzo[1,2,5]thiadiazol-5-ylmethyl-4,4-dimethyl-2-oxo-pyrrolidin-3-yloxy)-2-trifluoromethyl-benzonitrile] | 64 | 74 |  | 
16 | CC1(C)CN(Cc2nc3ccccc3s2)C(=O)C1Oc1ccc(C#N)c(C(F)(F)F)c1 (stereo not shown) [Example 40, 4-(1-Benzothiazol-2-ylmethyl-4,4-dimethyl-2-oxo-pyrrolidin-3-yloxy)-2-trifluoromethyl-benzonitrile] | 43 | 50 |  | 
17 | CC1(C)CN(Cc2cccc3nsnc23)C(=O)C1Oc1ccc(C#N)c(C(F)(F)F)c1 (stereo not shown) [Example 41, 4-(1-Benzo[1,2,5]thiadiazol-4-ylmethyl-4,4-dimethyl-2-oxo-pyrrolidin-3-yloxy)-2-trifluoromethyl-benzonitrile] |  |  | 72 | 107
18 | CC1(C)CN(Cc2cccc(OC(F)F)c2)C(=O)C1Oc1ccc(C#N)c(C(F)(F)F)c1 (stereo not shown) [Example 42, 4-[1-(3-Difluoromethoxy-benzyl)-4,4-dimethyl-2-oxo-pyrrolidin-3-yloxy]-2-trifluoromethyl-benzonitrile] |  |  | 219 | 120
19 | CC1(C)CN(Cc2cccc(C#N)c2)C(=O)C1Oc1ccc(C#N)c(C(F)(F)F)c1 (stereo not shown) [Example 45] | 50 | 50 |  | 
20 | CC1(C)CN(Cc2noc(-c3ccccc3)n2)C(=O)C1Oc1ccc(C#N)c(C(F)(F)F)c1 (stereo not shown) [Example 46, 4-[4,4-Dimethyl-2-oxo-1-(5-phenyl-[1,2,4]oxadiazol-3-ylmethyl)-pyrrolidin-3-yloxy]-2-trifluoromethyl-benzonitrile] | 90 | 43 |  | 
